These results are taken from patent US20210122763A1, “OGA INHIBITOR COMPOUNDS” (Janssen Pharmaceutica NV, priority 2018, published 2021).

Series [1] addresses T1, recombinant human Meningioma Expressed Antigen 5 (MGEA5), also referred to as O-GlcNAcase (OGA) (Homo sapiens, UniProt O60502).
T1 construct: Full length OGA enzyme was purchased at OriGene (cat #TP322411); purchased OriGene TP322411
T1 sequence (O60502 1-916): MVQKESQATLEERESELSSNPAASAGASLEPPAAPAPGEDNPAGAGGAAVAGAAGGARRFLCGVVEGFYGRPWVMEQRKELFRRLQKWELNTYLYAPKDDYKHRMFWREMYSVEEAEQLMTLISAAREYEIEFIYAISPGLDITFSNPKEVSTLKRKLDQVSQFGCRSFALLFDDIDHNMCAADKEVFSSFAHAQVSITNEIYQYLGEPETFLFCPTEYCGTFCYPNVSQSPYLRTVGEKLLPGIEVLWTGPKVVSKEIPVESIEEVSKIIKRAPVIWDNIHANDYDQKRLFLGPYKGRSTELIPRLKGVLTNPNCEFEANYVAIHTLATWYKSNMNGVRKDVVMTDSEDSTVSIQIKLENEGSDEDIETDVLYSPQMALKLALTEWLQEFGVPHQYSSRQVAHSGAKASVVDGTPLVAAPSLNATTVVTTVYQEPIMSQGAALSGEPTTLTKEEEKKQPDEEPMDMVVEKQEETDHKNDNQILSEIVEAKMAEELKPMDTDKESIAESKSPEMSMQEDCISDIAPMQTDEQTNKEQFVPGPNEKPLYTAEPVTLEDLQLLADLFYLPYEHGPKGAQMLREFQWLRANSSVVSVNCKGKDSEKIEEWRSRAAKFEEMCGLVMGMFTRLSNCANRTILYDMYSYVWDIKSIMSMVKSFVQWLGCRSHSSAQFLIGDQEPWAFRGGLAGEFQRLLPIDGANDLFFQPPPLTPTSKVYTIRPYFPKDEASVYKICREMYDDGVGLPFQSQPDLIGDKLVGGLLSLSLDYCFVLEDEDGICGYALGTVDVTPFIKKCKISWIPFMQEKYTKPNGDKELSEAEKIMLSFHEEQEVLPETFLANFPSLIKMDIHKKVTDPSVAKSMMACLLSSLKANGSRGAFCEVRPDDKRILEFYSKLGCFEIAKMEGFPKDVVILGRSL
Kind of series: OGA biochemical assay (inhibition of FM-GlcNAc hydrolysis, fluorescence). To be noted: for Emax: read-out: Enzymatic Emax (%); for IC50: read-out: Enzymatic hOGA, pIC50 (converted). The gist of the method: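 Full-length OGA at 2 nM was pre-incubated 60 min at room temperature with compound, then FM-GlcNAc at 100 uM final was added in citrate/phosphate buffer pH 7.2 with 0.005% Tween-20. After 6 h at room temperature, carbonate pH 11.0 stopped the reaction. Fluorescence read at 485/538 nm; IC50 and Hill coefficient from curve fit against no-inhibitor and saturating-standard controls.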

The next series concerns the target T2, OGA (Homo sapiens, UniProt O60502).
T2 construct: HEK293 cells inducible for P301L mutant human Tau (isoform 2N4R) were established at Janssen; endogenous in cells; host or cells: HEK293 cells inducible for P301L mutant human Tau (2N4R)
T2 sequence (O60502 1-916): T1 sequence (O60502 1-916)
Nature of the series: OGA cellular assay (ICC detection of O-GlcNAcylated proteins in HEK293 cells inducible for P301L mutant human Tau). The following applies: 6 hours incubation; for Emax: HEK293, HEK293 cells inducible for P301L mutant human Tau, maximum = Thiamet G 200 uM; for EC50: HEK293 cells inducible for P301L mutant human Tau, read-out: Cellular hOGA, pEC50 (converted). It counts as cell-based. The gist of the method: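 HEK293 cells with inducible P301L 2N4R Tau, seeded in low-glucose medium, were exposed to compounds for 6 hours (0.2% DMSO), then PFA-fixed and stained with CTD110.6. Imaging intensity at 488 nm measured O-GlcNAcylation, with Hoechst nuclei counts for toxicity. IC50s came from non-linear regression, with Thiamet G at 200 uM as maximum inhibition.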

Counter-ions that a name gives are not always drawn. Where only a bound is given, the exact number is not on record here.

Regarding `Cc1ccc(OC2CCN(C(C)c3ccc4c(n3)OCCO4)CC2)cn1` (stereo not shown) (as salt: HCl) [Compound 41], the melting point turned out to be 226.7 °C.
On the same count and under the same terms, then `CC(c1nc2c(cc1F)OCCO2)N1CCC(Oc2ccc(C(=O)N(C(C)C)C(C)C)nc2)CC1` (stereo not shown) (as salt: HCl) [Compound 123], with 139.7 °C; and `Cc1cc(OC2CCN(C(C)c3ccc4c(n3)OCCO4)CC2)cc(OC(C)C)n1` (stereo not shown) (as salt: HCl) [Compound 124], with 196.6 °C; and `Cc1cc(OC2CCN(C(C)c3ccc4c(n3)OCCO4)CC2)cc(C2CC2)n1` (stereo not shown) (as salt: HCl) [Compound 125], with 171.4 °C.
The same measure, in the same setting: then `CCc1cc(OC2CCN(C(C)c3ccc4c(n3)OCCO4)CC2)cc(C)n1` (stereo not shown) (as salt: HCl) [Compound 129], with 66 °C; and `Cc1cc(OC2CCN(C(C)c3ccc4c(n3)OCCO4)CC2)cc(C(C)C)n1` (stereo not shown) (as salt: HCl) [Compound 130], with 186.4 °C; and `Cc1cc(OC2(CF)CCN(C(C)c3ccc4c(n3)OCCO4)CC2)cc(C)n1` (stereo not shown) (as salt: HCl) [Compound 132], with 189.8 °C.
Same read-out and setting: with `Cc1cc(OC2CCN([C@@H](C)c3nc4c(cc3F)CCO4)CC2)cc(C)n1` (single isomer, unassigned) (as salt: HCl) [Compound 145] the figure was 103.27 °C; with `Cc1cc(OC2CCN([C@H](C)c3nc4c(cc3F)OCCO4)CC2)cc(C)n1` (single isomer, unassigned) (as salt: HCl) [Compound 148], 255.75 °C.
The molecule `Cc1ncc(COC2CCN(C(C)c3nc4c(cc3F)OCCO4)CC2)cn1` (single isomer, unassigned) [Compound 136] had a melting point of 64.4 °C. In series [1], the maximal response (Emax) came out at 95% and the IC50 is 12.6 nM. On OGA, the Emax was 81% and the EC50 was 50.1 nM.
The matching figures for `Cc1ncc(COC2CCN([C@@H](C)c3nc4c(cc3F)OCCO4)CC2)cn1` (single isomer, unassigned) [Compound 137]: 70.1 °C, 96%, 398 nM, 25% and greater than 1000 nM.
Consider `Cc1cc(OC2CCN([C@H](C)c3nc4c(cc3F)CCO4)CC2)cc(C)n1` (single isomer, unassigned) [Compound 143], for which the melting point was found to be 105.3 °C. In addition, in series [1], the Emax was 99% and the IC50 was 5.01 nM. For the same molecule, on OGA, the Emax was 100% and the EC50 is 17.4 nM.
The matching figures for `Cc1ncc(OC2CCN(C(C)c3ccc4c(c3)OCO4)CC2)cn1.Cl` (stereo not shown) [Compound 30]: 213.2 °C, 100%, 794 nM, 15% and greater than 1000 nM.
The corresponding values for `Cc1ccc(OC2CCN(C(C)c3ccc4c(c3)OCO4)CC2)cn1.Cl` (stereo not shown) [Compound 31] are 278.4 °C, 96%, 794 nM, 21% and greater than 1000 nM.
The matching figures for `Cc1cncc(OC2CCN(C(C)c3ccc4c(n3)OCCO4)CC2)n1` (stereo not shown) [Compound 76]: 91.71 °C, 99%, 79.4 nM, 36% and greater than 1000 nM.
Molecule `Cc1ncc(OC2CCN(C(C)c3ccc4c(n3)OCCO4)CC2)cn1.Cl` (stereo not shown) [Compound 90] returned a melting point of 72.8 °C. Further, in series [1], the Emax is 100% and the IC50 was 100 nM. On OGA, the maximal effect (Emax) was determined as 48% and the EC50 is greater than 1000 nM.
Regarding `Cc1ncc(OC2CCN(C(C)c3nc4c(cc3F)OCCO4)CC2)cn1.Cl` (stereo not shown) [Compound 91], the melting point turned out to be 134.6 °C. Besides, in series [1], the maximum response (Emax) came out at 105% and the IC50 was 15.8 nM. In addition, on OGA, the Emax stood at 86% and the EC50 was 200 nM.
Turning to `COc1cc(OC2CCN(C(C)c3nc4c(cc3F)OCCO4)CC2)ncc1C#N` (stereo not shown) [Compound 153], in series [1], the Emax is 95% and the IC50 was 31.6 nM. Moreover, on OGA, the maximal response (Emax) amounted to 67% and the EC50 was 200 nM.
The corresponding values for `Cc1cc(COC2CCN(C(C)c3ccc4c(n3)OCC4)CC2)cc(C)n1` (stereo not shown) [Compound 154] are 94%, 39.8 nM, 81% and 158 nM.
For the molecule `CC(c1nc2c(cc1F)OCCO2)N1CCC(Oc2ccnc(C#N)c2)CC1` (stereo not shown) [Compound 155], in series [1], the Emax stood at 94% and the IC50 was 15.8 nM. Further, on OGA, the maximal response (Emax) came to 67% and the EC50 is 79.4 nM.
In the case of `Cc1cnc(OC2CCN(C(C)c3nc4c(cc3F)OCCO4)CC2)cc1C` (stereo not shown) [Compound 157], in series [1], the Emax is 94% and the IC50 is 20 nM. In addition, on OGA, the Emax turned out to be 80% and the EC50 is 158 nM.
Consider `CC(c1nc2c(cc1F)OCCO2)N1CCC(Oc2ccc(C(F)(F)F)cn2)CC1` (stereo not shown) [Compound 158], for which, in series [1], the maximum response (Emax) amounted to 99% and the IC50 is 15.8 nM. Moreover, on OGA, the Emax turned out to be 77% and the EC50 was 251 nM.
With `Cc1cc(COC2CCN(C(C)c3nc4c(cc3F)OCCO4)CC2)cc(C)n1` (stereo not shown) [Compound 159], in series [1], the maximal effect (Emax) is 94% and the IC50 is 12.6 nM. On OGA, the maximal effect (Emax) is 75% and the EC50 was 63.1 nM.
The matching figures for `Cc1cc(COC2CCN(C(C)c3nc4nc(C)sc4cc3F)CC2)cc(C)n1` (stereo not shown) [Compound 160]: 96%, 12.6 nM, 87% and 39.8 nM.
The corresponding values for `Cc1ccnc(OC2CCN(C(C)c3nc4c(cc3F)OCCO4)CC2)c1` (stereo not shown) [Compound 161] are 97%, 20 nM, 83% and 158 nM.
On to `Cc1cc(OC2CCN(C(C)c3nc4c(cc3F)OCCO4)CC2)ccn1` (stereo not shown) [Compound 162], for which, in series [1], the Emax was determined as 98% and the IC50 was 12.6 nM. In addition, at OGA, the Emax came out at 83% and the EC50 was 63.1 nM.
The corresponding values for `CC(c1ccc2c(n1)OCCO2)N1CCC(Oc2cnc(C3CCC3)nc2)CC1` (stereo not shown) [Compound 163] are 92%, 126 nM, 34% and greater than 1000 nM.
The corresponding values for `CC(c1nc2c(cc1F)OCCO2)N1CCC(Oc2ccc(C3CC3)nc2)CC1` (stereo not shown) [Compound 164] are 96%, 7.94 nM, 72% and 67.6 nM.
The corresponding values for `Cc1ccc(OC2CCN(C(C)c3nc4c(cc3F)OCCO4)CC2)nc1` (stereo not shown) [Compound 165] are 94%, 15.8 nM, 72% and 316 nM.
Take `Cc1cc(OC2CCN(C(C)c3nc4c(cc3F)OCCO4)CC2)cnc1C` (stereo not shown) [Compound 166]: in series [1], the maximal response (Emax) was 98% and the IC50 was 10 nM. Besides, at OGA, the maximal effect (Emax) worked out at 85% and the EC50 is 63.1 nM.
The corresponding values for `CC(c1nc2c(cc1F)OCCO2)N1CCC(Oc2cnc(C(F)(F)F)nc2)CC1` (stereo not shown) [Compound 168] are 96%, 12.6 nM, 75% and 200 nM.
Regarding `Cc1cc(COC2CCN(C(C)c3nc4c(cc3F)OCCO4)CC2)cc(C(F)(F)F)n1` (stereo not shown) [Compound 169], in series [1], the maximal response (Emax) stood at 96% and the IC50 was 12.6 nM. Further, at OGA, the maximal response (Emax) was 87% and the EC50 was 51.3 nM.
